Data as given in PMC11720011, “Single Disulfide Bond in Host Defense Thanatin Analog Peptides: Antimicrobial Activity, Atomic-Resolution Structures and Target Interactions” (International Journal of Molecular Sciences, 2024).
In brackets after ≈: the same amount, converted by molar mass. Residues, ends and D or L forms follow the SMILES beside them.

Key:
[1] = tested on: ATCC strains of E. coli, K. pneumoniae, S. enterica, S. pyogenes and E. faecalis; format: cell-based; details: 18 h
Procedure: (§1) Antibacterial activities of the VF16QK and VF16QK^Ser peptides (GL Biochem, Shanghai, China) were determined using the broth dilution method. Bacterial strains of Escherichia coli ATCC 25922 (EC); Salmonella enterica ATCC 14028 (SE); Klebsiella pneumoniae ATCC 13883 (KP); Acinetobacter baumannii ATCC BAA-1798 (AB) Streptococcus pyogenes ATCC 19615 (SP) and Enterococcus faecalis ATCC 29212 (EF) were used for this study.
(§2) Typically, overnight cultures of bacterial cells were grown to mid-log phase and diluted in 2X Mueller Hinton (MH) broth (Millipore-Sigma^TM, Saint Louis, MO, USA) to a final OD600 of 0.002. In a 96-well plate, 100 μL of the diluted bacterial solutions and 100 μL of the VF16QK and VF16QK^Ser peptides in concentrations ranging from 0.5 μM to 8 μM were incubated at 37 °C for 18 h.

[2] = tested on: Enterococcus faecalis ATCC 29212 (EF); format: cell-based; details: ATCC 29212, 18 h
Procedure: as §1, §2

[3] = tested on: Escherichia coli ATCC 25922 (EC); format: cell-based; details: ATCC 25922, 18 h
Procedure: as §1, §2

[4] = tested on: Klebsiella pneumoniae ATCC 13883 (KP); format: cell-based; details: ATCC 13883, 18 h
Procedure: as §1, §2

[5] = tested on: Streptococcus pyogenes ATCC 19615 (SP); format: cell-based; details: ATCC 19615, 18 h
Procedure: as §1, §2

[6] = target: T1, LptAm, the periplasmic LPS transport protein of E. coli (Escherichia coli, UniProt P0ADV1); experiment: Isothermal titration calorimetry (ITC) with LptAm; format: binding; details: in words
T1 construct: His-tagged LptAm (residues 28–159) of E. coli; His-tag; made in house; host or cells: E. coli BL21
Procedure: Figure 2 Isothermal titration calorimetry (ITC) of binding interactions of VF16QK with (A) LptAm, the periplasmic LPS transport protein of E. coli, and (B) the LPS-outer membrane. LptAm-peptide ITC studies were carried out in 50 mM of sodium phosphate buffer and 150 mM of NaCl at pH 7.0 and 25 °C. LptAm proteins in sample cells were titrated with 2 μL aliquots of peptides and the heat exchange was measured. For LPS–peptide interactions, LPS in sample cells were titrated with 2 μL aliquots of peptides in 10 mM of sodium phosphate buffer, pH 7.0, 37 °C.
The binding interactions of the thanatin peptides VF16QK and VF16QK^Ser with the LPS-outer membrane and LptAm were determined using ITC. LPS and peptide samples were prepared in 10 mM of sodium phosphate buffer, pH 7.0. Typically, twenty injections, or 2.0 μL of peptides (1 mM in syringe), were titrated into the sample cell containing LPS ([…]) at 37 °C with a stirring speed of 750 rpm. […] ITC data were analyzed following single site binding in Microcal origin 5.0 software to determine the association constant (Ka) and change of enthalpy (ΔH). The dissociation constant (Kd), change of free energy (ΔG) and change of entropy (TΔS) were calculated as: Kd = 1/Ka, ΔG = ΔH − TΔS, respectively. […]

[7] = tested on: LPS-outer membrane of E. coli cells; experiment: Outer membrane permeabilization assay (NPN fluorescence); format: cell-based; details: E. coli cells OD600 ~0.5, 10 mM sodium phosphate, peptide 1 to 16 µM, excitation 350 nm, emission 390–450 nm; in words
Procedure: (§3) Figure 1 (A) Fluorescence emission spectra of NPN as a function of concentrations of the VF16QK and VF16QK^ser peptides in E. coli cell solutions. 10 μM of fluorescence probes were prepared in 10 mM of sodium phosphate buffer with a fixed bacterial cell density of 0.5. Fluorescence spectra were recorded with an excitation wavelength of 350 nm and emission of 390–450 nm. (B) Plot showing z potential changes of E. coli cells as a function of concentrations, 2 to 32 μM, of the VF16QK and VF16QK peptides.
VF16QK and VF16QK^Ser were assessed for their ability to permeabilize the LPS-outer membrane of E. coli cells by use of the fluorescence probe 1-N-phenylnapthylamine (NPN). Bacterial cells were prepared from a mid-log culture in 10 mM of sodium phosphate with an adjusted OD600 ~ 0.5. A basal fluorescence of […] NPN in bacterial suspension, in absence of peptide, was measured followed by sequential additions of peptides from 1 to 16 µM. Fluorescence experiments were conducted in a Cary Eclipse spectrophotometer (Varian, Palo Alto, CA, USA) using a 0.1 cm quartz cuvette. An excitation wavelength of 350 nm and emission was recorded from 390–450 nm.

E. coli cells = experiment: Zeta potential measurements (surface charge neutralization); format: cell-based; details: 10 mM sodium phosphate pH 7, peptide up to 32 μM, three replicates, in words
Procedure: as §3
Zeta potential measurements were performed in a Zeta Sizer Nano ZS (Malvern Instruments, Worcestershire, UK) instrument equipped with a 633 nm He laser. Mid-log phase E. coli cultures were centrifuged at 5000 rpm for 10 min and prepared in 10 mM of sodium phosphate buffer, pH 7. Z potential values of bacterial cell suspension were obtained from 1 to 32 μM of the peptides in zeta cells with gold electrodes. For individual measurement, 100 runs were carried out and three replicates were performed.

[8] = target: T2, LptAm, truncated functional deletion variant of the periplasmic LPS transport protein LptA of E. coli (E. coli, UniProt P0ADV1 28-159); experiment: ITC; peptide (250 uM in syringe, 20 injections of 2 uL) titrated into LptAm in the sample cell (25 mM [sic]); 50 mM sodium phosphate, 150 mM NaCl, pH 7.0, 25 °C; single site binding fit; details: both partners purified
T2 construct: LptA of E. coli, residues 28-159 (LptAm); no removal of the His tag is told; also called His-tagged LptAm; source: E. coli BL21, purified (Ni-NTA, size-exclusion chromatography)
T2 sequence (looked up): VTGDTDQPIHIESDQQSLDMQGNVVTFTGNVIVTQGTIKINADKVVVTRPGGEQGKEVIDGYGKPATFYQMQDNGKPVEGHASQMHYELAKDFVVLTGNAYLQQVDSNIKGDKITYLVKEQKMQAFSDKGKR

**Q.** Which results are given for `CC[C@H](C)[C@H](NC(=O)[C@@H](NC(=O)[C@@H]1CCCN1C(=O)[C@@H](N)C(C)C)[C@@H](C)CC)C(=O)N[C@@H](Cc1ccc(O)cc1)C(=O)N[C@H]1CSSC[C@@H](C(=O)N[C@@H](CCCCN)C(=O)N[C@@H](CCCNC(=N)N)C(=O)N[C@@H](Cc2ccccc2)C(N)=O)NC(=O)[C@H](CCCCN)NC(=O)[C@@H](CCCCN)NC(=O)[C@H]([C@@H](C)O)NC(=O)[C@H](CCCNC(=N)N)NC(=O)[C@H](CCCNC(=N)N)NC(=O)[C@H](CC(N)=O)NC1=O` [VF16QK] (HELM PEPTIDE1{V.P.I.I.Y.C.N.R.R.T.[dK].K.C.K.R.F.[am]}$PEPTIDE1,PEPTIDE1,6:R3-13:R3$$$V2.0)?
**A.** MIC values over Gram-negative and Gram-positive bacterial strains [1]: 1 to 4 µM; MIC, EF [2]: 1 µM (≈ 2.02 µg/mL); MIC, EC [3]: 1 to 4 µM; MIC, KP [4]: 1 to 2 µM; MIC, SP [5]: 1 µM (≈ 2.02 µg/mL)

**Q.** Which results are given for `CC[C@H](C)[C@H](NC(=O)[C@@H](NC(=O)[C@@H]1CCCN1C(=O)[C@@H](N)C(C)C)[C@@H](C)CC)C(=O)N[C@@H](Cc1ccc(O)cc1)C(=O)N[C@@H](CO)C(=O)N[C@@H](CC(N)=O)C(=O)N[C@@H](CCCNC(=N)N)C(=O)N[C@@H](CCCNC(=N)N)C(=O)N[C@H](C(=O)N[C@H](CCCCN)C(=O)N[C@@H](CCCCN)C(=O)N[C@@H](CO)C(=O)N[C@@H](CCCCN)C(=O)N[C@@H](CCCNC(=N)N)C(=O)N[C@@H](Cc1ccccc1)C(N)=O)[C@@H](C)O` [VF16QK^Ser] (HELM PEPTIDE1{V.P.I.I.Y.S.N.R.R.T.[dK].K.S.K.R.F.[am]}$$$$V2.0; N-terminus and C-terminus assumed)?
**A.** MIC values over Gram-negative and Gram-positive bacterial strains [1]: > 16 µM; nature of binding to LptAm (heat of exchange) [6]: endothermic binding; NPN fluorescence emission (LPS-outer membrane permeabilization) [7]: significantly diminished LPS-outer membrane permeabilization; neutralization of surface charge (zeta potential) (E. coli cells): less effective

B1: VF16QK, disulfide-bonded 16-residue thanatin analog peptide (peptide)
peptide: VPIIYCNRRTKKCKRF
HELM: PEPTIDE1{V.P.I.I.Y.C.N.R.R.T.[dK].K.C.K.R.F.[am]}$PEPTIDE1,PEPTIDE1,6:R3-13:R3$$$V2.0; N-terminus assumed
SMILES: CC[C@H](C)[C@H](NC(=O)[C@@H](NC(=O)[C@@H]1CCCN1C(=O)[C@@H](N)C(C)C)[C@@H](C)CC)C(=O)N[C@@H](Cc1ccc(O)cc1)C(=O)N[C@H]1CSSC[C@@H](C(=O)N[C@@H](CCCCN)C(=O)N[C@@H](CCCNC(=N)N)C(=O)N[C@@H](Cc2ccccc2)C(N)=O)NC(=O)[C@H](CCCCN)NC(=O)[C@@H](CCCCN)NC(=O)[C@H]([C@@H](C)O)NC(=O)[C@H](CCCNC(=N)N)NC(=O)[C@H](CCCNC(=N)N)NC(=O)[C@H](CC(N)=O)NC1=O
notes: Analog of thanatin of Podisus maculiventris (21 residues) without its five N-terminal residues; also called VK16QK; source: synthetic peptide; bought: GL Biochem, Shanghai
**Q.** With B1 as the molecule, how does the Kd [8] read?
**A.** 400 nM

**Q.** And the dH [8]?
**A.** -10.2 kcal/mol
